The source of these data is ChEMBL document CHEMBL1125561, “Inhibition of human leukocyte elastase by N-substituted peptides containing alpha,alpha-difluorostatone residues at P1” (J Med Chem, 1992).

Numbered stars: 1 amine (or outer) side, 2 acyl side, 3 side chain; on linkers, the order of the positions; unused ones are H or OH. Square brackets hold non-standard residues; d marks the D form. Peptide text beside a SMILES is read from it. * marks the point of attachment. X1 = CC(C)[C@H](N[*:1])C(=O)C(F)(F)C(=O)[*:2]; N(Indan-2-yl)Gly = O=C(O)CNC1Cc2ccccc2C1; Cbz = O=C(OCc1ccccc1)*

In test [1] the test system is Cricetinae gen. sp. Kind of test: Inhibition of Elastase-induced pulmonary Hemorrhage(EPH) in Hamsters at a dose of 20 ug/mL. The test is classed as functional, Cricetulus griseus.
The target of test [2] is T1, Neutrophil elastase (Homo sapiens, UniProt P08246).
T1 sequence (P08246 whole entry): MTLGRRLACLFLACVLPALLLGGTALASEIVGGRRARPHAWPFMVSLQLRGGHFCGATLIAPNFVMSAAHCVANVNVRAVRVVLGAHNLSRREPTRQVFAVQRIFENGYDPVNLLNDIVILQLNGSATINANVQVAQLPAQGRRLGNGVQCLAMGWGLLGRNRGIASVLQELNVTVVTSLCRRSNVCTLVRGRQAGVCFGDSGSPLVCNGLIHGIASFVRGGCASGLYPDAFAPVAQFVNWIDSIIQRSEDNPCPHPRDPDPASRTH
As to the kind of experiment: Inhibitory activity against human leukocyte elastase (HLE) at pH 7.5.

Test [3] relates to Cricetinae gen. sp. Kind of test: Inhibition of Elastase-induced pulmonary Hemorrhage(EPH) in Hamsters at a dose of 10 ug/mL. Format: functional, Cricetulus griseus.
The test system of test [4] is Cricetinae gen. sp. Kind of test: Inhibition of Elastase-induced pulmonary Hemorrhage(EPH) in Hamsters at a dose of 3 ug/mL. The test is classed as functional, Cricetulus griseus.

In test [1], `COC(=O)[C@H](CCCCNC(=O)C(F)(F)C(=O)[C@@H](NC(=O)CN(C(=O)[C@@H](NC(=O)OCc1ccccc1)C(C)C)C1Cc2ccccc2C1)C(C)C)NC(C)=O` returned a Max reduction of 7.6%.
On to `CCOC(=O)CNC(=O)CNC(=O)C(F)(F)C(=O)[C@@H](NC(=O)CN(C(=O)[C@@H](NC(=O)OCc1ccccc1)C(C)C)C1Cc2ccccc2C1)C(C)C` (Cbz-V[N(Indan-2-yl)Gly][X1]GG-OEt), for which the Max reduction in test [1] is 33.3%.
As to `CCOC(=O)C(F)(F)C(=O)[C@@H](NC(=O)CN(C(=O)[C@@H](NC(=O)OCc1ccccc1)C(C)C)C1Cc2ccccc2C1)C(C)C`, the Max reduction in test [1] came to 51.9%.
As a reminder, the IC50 is the midpoint of a concentration-inhibition curve. High values mean a need for much substance, low ones inhibition by little substance. As to `CC(C)[C@H](NC(=O)OCc1ccccc1)C(=O)N(CC(=O)N[C@H](C(=O)C(F)(F)C(=O)O)C(C)C)C1Cc2ccccc2C1`, in test [2], the IC50 was > 5 µM. The Max reduction in test [1] is given as 55.8%.
`CC(C)C(NC(=O)CN(C(=O)[C@@H](NC(=O)c1ccc(C(=O)NS(=O)(=O)c2ccc(Cl)cc2)cc1)C(C)C)C1Cc2ccccc2C1)C(=O)C(F)(F)F` (stereo partly specified): the Max reduction in test [3] turned out to be 90.5%; in test [4], 58.1%.
On to `CCOC(=O)C(F)(F)C(=O)[C@@H](NC(=O)CN(C(=O)[C@@H](NC(=O)c1ccc(C(=O)NS(=O)(=O)c2ccc(Cl)cc2)cc1)C(C)C)C1Cc2ccccc2C1)C(C)C`, for which the Max reduction in test [3] is on record as 94.6%.
As to `CCOC(=O)C(F)(F)C(=O)[C@H](Cc1ccccc1)NC(=O)CN(C(=O)[C@@H](NC(=O)c1ccc(C(=O)NS(=O)(=O)c2ccc(Cl)cc2)cc1)C(C)C)C1Cc2ccccc2C1`, in test [2], the IC50 is > 5 µM. Further, the Max reduction in test [3] is on record as 12.2%.
As to `CCOC(=O)C(F)(F)C(=O)[C@H](CC(C)C)NC(=O)CN(C(=O)[C@@H](NC(=O)c1ccc(C(=O)NS(=O)(=O)c2ccc(Cl)cc2)cc1)C(C)C)C1Cc2ccccc2C1`, the Max reduction in test [1] is recorded as 55.2%.
